# Measured values as given in patent publication US10206902B2, “Mono- or di-substituted indoles as dengue viral replication inhibitors” (priority 2014, dated 2019).
# Assays:
# Assay type in all cases: cell-based
# Vero cells = experiment: in vitro; settings: African green monkey
# Experimental: (§1) In parallel, the toxicity of the compounds was assessed on the same plates. Once the read-out for the eGFP signal was done, 10 μL of resazurin, a cell viability stain, was added to all wells of the 384-well plates. The resazurin assay is based on the reduction of the blue resazurin by NADH, produced by the cells, into the highly fluorescent product, resorufin. The formation of pink fluorescent resorufin is directly related to the number of viable cells in the well. The plates were incubated for an additional 5 hours in a fully humidified incubator (37° C., 5% CO2). Next, the plates were measured on an Infinite reader (Tecan) using an excitation wavelength of 530 nm. The half maximal cytotoxic concentration (CO50) was also determined, defined as the concentration required to reduce the resazurin conversion by 50% compared to that of the cell control wells (Table 1). Finally, the selectivity index (SI) was determined for the compounds, which was calculated as followed: SI=CC50/EC50.
# DENV-1 strain TC974#666 = experiment: Tetravalent RT-qPCR assay Protocol A, serotype 1; settings: Dengue virus, DENV1, 72 h, RT-qPCR serotype 1 TC974#666, Vero cells, day 3
# Experimental: (§2) The antiviral activity of the compounds of the invention was tested against DENV-1 strain TC974#666 (NCPV), DENV-2 strain 16681, DENV-3 strain H87 (NCPV) and DENV-4 strains H241 (NCPV) and EDEN (SG/06K2270DK1/2005; GenBank accession number QG398256) in a RT-qPCR assay. Therefore, Vero cells were infected with either DENV-1, or -2, or -3, or -4 in the presence or absence of test compounds. At day 3 post-infection, the cells were lysed and cell lysates were used to prepare cDNA of both a viral target (the 3′UTR of DENV; table 2) and a cellular reference gene (β-actin, table 2). Subsequently, a duplex real time PCR was performed on a Lightcycler480 instrument. The generated Cp value is inversely proportional to the amount of RNA expression of these targets. Inhibition of DENV replication by a test compound result in a shift of Cp's for the 3′UTR gene. On the other hand, if a test compound is toxic to the cells, a similar effect on β-actin expression will be observed. The comparative ΔΔCp method is used to calculate EC50, which is based on the relative gene expression of the target gene (3′UTR) normalized with the cellular housekeeping gene (β-actin). In addition, CC50 values were determined based on the Cp values acquired for the housekeeping gene β-actin.
# (§3) The culture medium consisted of minimal essential medium supplemented with 2% of heat-inactivated fetal calf serum, 0.04% gentamycin (50 mg/mL) and 2 mM of L-glutamine. Vero cells, obtained from ECACC, were suspended in culture medium and 75 μL/well was added in 96-well plates (10000 cells/well), which already contain the antiviral compounds. Typically, these plates contain a 4-fold serial dilution of 9 dilution steps of the test compound at 200 times the final concentration in 100% DMSO (500 nL; final concentration range: 25 μM-0.00038 μM). In addition, each plate contains wells which are assigned as virus controls (containing cells and virus in the absence of compound) and cell controls (containing cells in the absence of virus and compound). Once the cells were added in the plates, the plates were incubated in a fully humidified incubator (37° C., 5% CO2) until the next day. Then, DENV-1 strain TC974#666, DENV-2 strain 16681, DENV-3 strain H87 or DENV-4 strains H241 or EDEN were added. […] In parallel, 25 μL of culture medium was added to the cell controls. Next, the plates were incubated for 3 days in a fully humidified incubator (37° C., 5% CO2). After 3 days, the supernatant was removed from the wells and the cells were washed twice with ice-cold PBS (˜100 μL). The cell pellets within the 96-well plates were stored at −80° C. for at least 1 day. Next, RNA was extracted using the Cells-to-CT™ lysis kit, according to the manufacture's guideline (Applied Biosystems). The cell lysates can be stored at −80° C. or immediately used in the reverse transcription step. In preparation of the reverse transcription step, mix A (table 3A) was prepared and 7.57 μL/well was dispensed in a 96-well plate. After addition of 5 μL of the cell lysates, a five minute denaturation step at 75° C. was performed (table 3B). Afterwards, 7.43 μL of mix B was added (table 3C) and the reverse transcription step was initiated (table 3D) to generate cDNA.
# (§4) Finally, a RT-qPCR mix was prepared, mix C (table 4A), dispensed in 96-well LightCycler qPCR plates to which 3 μL of cDNA was added and the qPCR was performed according to the conditions in table 4B on a LightCycler 480. Using the LightCycler software and an in-house LIMS system, dose response curves for each compound were calculated and the half maximal effective concentration (EC50) and the half maximal cytotoxic concentration (CO50) were determined (Tables 6-9).
# DENV-2 strain 16681 = experiment: Tetravalent RT-qPCR assay Protocol A, serotype 2; settings: Dengue virus, DENV2, 72 h, RT-qPCR serotype 2 16681, Vero cells, day 3
# Experimental: as §2, §3, §4
# in vitro [1] = settings: African green monkey
# Experimental: as §2, §3, §4
# uninfected Vero cells = experiment: in vitro; settings: African green monkey
# Experimental: Potential cytotoxic effects of the compounds were evaluated in uninfected Vero cells. Cells were seeded at 4×10^4 cells/well in a 96-well plate in the presence of two-, three- or five-fold serial dilutions (ranging from 50 μg/mL-0.0038 μg/mL, 50 μg/mL-0.0076 μg/mL, and 50 μg/mL-0.00013 μg/mL, respectively) of compound and incubated for 4 to 7 days. Culture medium was discarded and 100 μL 3-(4,5-dimethylthiazol-2-yl)-5-(3-carboxymethoxyphenyl)-2-(4-sulfophenyl)-2H-tetrazolium/phenazinemethosulfate (MTS/PMS; Promega, Leiden, The Netherlands) in PBS was added to each well. Following a 2-hour incubation period at 37° C., the optical density was determined at 498 nm. Cytotoxic activity was calculated using the following formula: % cell viability=100×(ODCompound/ODCC), where ODcompound and ODCC correspond to the optical density at 498 nm of the uninfected cell cultures treated with compound and that of uninfected, untreated cell cultures, respectively. The 50% cytotoxic concentration (i.e., the concentration that reduces the total cell number with 50%; CC50) was calculated using linear interpolation (Tables 7 and 8).
# in vitro [2] = settings: African green monkey, CC50
# Experimental: as §1
Structure (SMILES),CC50 (Vero cells) [µM],EC50 (DENV-1 strain TC974#666) [µM],EC50 (DENV-2 strain 16681) [µM],CC50 at 3 days (in vitro [1]) [µM],CC50 (uninfected Vero cells) [µM],CC50 (in vitro [2]) [µM]
"COc1cc(NC(C(=O)c2c[nH]c3c(C)c(OC)ccc23)c2ccc(F)cc2OC)cc(OCCO)c1 (single isomer, unassigned) [Compound 11A, 2-(4-fluoro-2-methoxyphenyl)-2-((3-(2-hydroxyethoxy)-5-methoxyphenyl)amino)-1-(6-methoxy-7-methyl-1H-indol-3-yl)ethanone]",8.9,0.02,0.00084,6.3,12,
"COc1cc(NC(C(=O)c2c[nH]c3c(F)cc(C)cc23)c2ccc(F)cc2OC)cc(OCCO)c1 (single isomer, unassigned) [Compound 12B, 2-(4-fluoro-2-methoxyphenyl)-1-(7-fluoro-5-methyl-1H-indol-3-yl)-2-((3-(2-hydroxyethoxy)-5-methoxyphenyl)amino)ethanone]",5.5,0.02,0.0081,5,14,
"COc1cc(NC(C(=O)c2c[nH]c3cc(Cl)ccc23)c2ccc(F)cc2OC)cc(OCCO)c1 (single isomer, unassigned) [Compound 4A, 1-(6-chloro-1H-indol-3-yl)-2-(4-fluoro-2-methoxyphenyl)-2-((3-(2-hydroxyethoxy)-5-methoxyphenyl)amino)ethanone]",5.9,0.02,0.0016,,18,
"COc1cc(NC(C(=O)c2c[nH]c3c(C)c(F)ccc23)c2ccc(F)cc2OC)cc(OCCO)c1 (single isomer, unassigned) [Compound 2B, 2-(4-fluoro-2-methoxyphenyl)-1-(6-fluoro-7-methyl-1H-indol-3-yl)-2-((3-(2-hydroxyethoxy)-5-methoxyphenyl)amino)ethanone]",5.3,0.013,0.0023,3.6,15,
"COc1cc(NC(C(=O)c2c[nH]c3c(Cl)c(OC)ccc23)c2ccc(F)cc2OC)cc(OCCO)c1 (single isomer, unassigned) [Compound 8A, 1-(7-chloro-6-methoxy-1H-indol-3-yl)-2-(4-fluoro-2-methoxyphenyl)-2-((3-(2-hydroxyethoxy)-5-methoxyphenyl)amino)ethanone]",8.6,0.032,0.0009,10,,
"COc1cc(NC(C(=O)c2c[nH]c3cc(F)c(F)cc23)c2ccc(F)cc2OC)cc(OCCO)c1 (single isomer, unassigned) [Compound 10B, 1-(5,6-difluoro-1H-indol-3-yl)-2-(4-fluoro-2-methoxy-phenyl)-2-((3-(2-hydroxyethoxy)-5-methoxyphenyl)amino)ethanone]",6.9,0.016,0.0032,,11,
"COc1cc(NC(C(=O)c2c[nH]c3cc(F)ccc23)c2ccc(F)cc2OC)cc(OCCO)c1 (single isomer, unassigned) [Compound 1A, 1-(6-fluoro-1H-indol-3-yl)-2-(4-fluoro-2-methoxyphenyl)-2-((3-(2-hydroxyethoxy)-5-methoxyphenyl)amino)ethanone]",8.4,0.018,0.0032,,,
"COc1cc(NC(C(=O)c2c[nH]c3c(C)cc(F)cc23)c2ccc(F)cc2OC)cc(OCCO)c1 (single isomer, unassigned) [Compound 9B, 2-(4-fluoro-2-methoxyphenyl)-1-(5-fluoro-7-methyl-1H-indol-3-yl)-2-((3-(2-hydroxyethoxy)-5-methoxyphenyl)amino)ethanone]",5.5,0.019,0.0032,3.8,14,
"COc1cc(NC(C(=O)c2c[nH]c3cc(OC)c(F)cc23)c2ccc(F)cc2OC)cc(OCCO)c1 (single isomer, unassigned) [Compound 7A, 2-(4-fluoro-2-methoxyphenyl)-1-(5-fluoro-6-methoxy-1H-indol-3-yl)-2-((3-(2-hydroxyethoxy)-5-methoxyphenyl)amino)ethanone]",,0.029,0.0034,3.8,18,> 8.6
"COc1cc(NC(C(=O)c2c[nH]c3cc(OC)c(C)cc23)c2ccc(F)cc2OC)cc(OCCO)c1 (single isomer, unassigned) [Compound 6A, 2-(4-fluoro-2-methoxyphenyl)-2-((3-(2-hydroxyethoxy)-5-methoxyphenyl)amino)-1-(6-methoxy-5-methyl-1H-indol-3-yl)ethanone]",,0.016,0.0017,,17,7.5
"COc1cc(NC(C(=O)c2c[nH]c3c(F)c(F)ccc23)c2ccc(F)cc2OC)cc(OCCO)c1 (single isomer, unassigned) [Compound 5B, 1-(6,7-difluoro-1H-indol-3-yl)-2-(4-fluoro-2-methoxyphenyl)-2-((3-(2-hydroxyethoxy)-5-methoxyphenyl)amino)ethanone]",6.5,0.027,0.0036,,11,
"COc1cc(NC(C(=O)c2c[nH]c3c(C)c(Cl)ccc23)c2ccc(F)cc2OC)cc(OCCO)c1 (single isomer, unassigned) [Compound 3A, 1-(6-chloro-7-methyl-1H-indol-3-yl)-2-(4-fluoro-2-methoxyphenyl)-2-((3-(2-hydroxyethoxy)-5-methoxyphenyl)amino)ethanone]",,0.016,0.00079,4.1,13,
